According to ChEMBL document CHEMBL5126521, “Analgesic Opioid Ligand Discovery Based on Nonmorphinan Scaffolds Derived from Natural Sources” (J Med Chem, 2022):

Experiments:
[1] = biological target: T1, Delta-type opioid receptor (Mus musculus, UniProt P32300); assay: Displacement of [3H]deltorphin-II from mouse spinal cord DOP measured after 60 mins by liquid scintillation counter analysis; assay type: tissue-based
Mus musculus [2] = assay: Antinociceptive activity in mouse administered po by tail pressure test; assay type: functional
[3] = biological target: Kappa-type opioid receptor (Mus musculus, UniProt P33534); assay: Displacement of [3H]U-69593 from mouse spinal cord KOP measured after 60 mins by liquid scintillation counter analysis; assay type: tissue-based
Kappa-type opioid receptor (Mus musculus, UniProt P33534), sequence (P33534 whole entry): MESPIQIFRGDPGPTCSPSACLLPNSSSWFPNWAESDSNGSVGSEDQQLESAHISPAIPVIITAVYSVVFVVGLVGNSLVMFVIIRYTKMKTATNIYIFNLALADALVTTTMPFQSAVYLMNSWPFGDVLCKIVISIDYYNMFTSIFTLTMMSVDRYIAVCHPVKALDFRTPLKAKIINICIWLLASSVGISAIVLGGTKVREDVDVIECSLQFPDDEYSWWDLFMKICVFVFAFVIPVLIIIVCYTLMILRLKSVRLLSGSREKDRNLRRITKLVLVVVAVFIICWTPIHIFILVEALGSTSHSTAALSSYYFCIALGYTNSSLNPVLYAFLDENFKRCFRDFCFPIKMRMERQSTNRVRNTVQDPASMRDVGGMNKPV

Mus musculus [4] = assay: Antinociceptive activity in mouse administered sc by tail pressure test; assay type: functional
Mus musculus [5] = organism: Mus musculus; assay: Antinociceptive activity in mouse […]; assay type: functional; conditions: time 2 hrs
Mu-type opioid receptor [6] = biological target: T2, Mu-type opioid receptor (Mus musculus, UniProt P42866); assay: Displacement of [3H]DAMGO from mouse spinal cord MOP measured after 60 mins by liquid scintillation counter analysis; assay type: tissue-based
T2 sequence (P42866 whole entry): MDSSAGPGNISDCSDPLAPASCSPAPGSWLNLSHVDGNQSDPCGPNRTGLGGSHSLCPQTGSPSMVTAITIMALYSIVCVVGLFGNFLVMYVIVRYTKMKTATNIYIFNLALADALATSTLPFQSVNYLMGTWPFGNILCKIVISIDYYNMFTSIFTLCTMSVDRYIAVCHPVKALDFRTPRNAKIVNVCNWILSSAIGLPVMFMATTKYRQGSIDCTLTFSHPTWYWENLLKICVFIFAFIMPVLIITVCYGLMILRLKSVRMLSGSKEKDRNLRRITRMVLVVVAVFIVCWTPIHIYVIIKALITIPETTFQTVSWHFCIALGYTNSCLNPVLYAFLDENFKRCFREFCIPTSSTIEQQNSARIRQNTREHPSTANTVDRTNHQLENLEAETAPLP

[7] = Displacement of [3H]DPDPE from guinea pig brain membrane DOP incubated for 2.5 hr by scintillation counter analysis; assay type: cell membranes, Cavia porcellus
[8] = Toxicity in sc dosed mouse assessed as antinociceptive activity tolerance; assay type: organism-based; conditions: in vivo
[9] = biological target: Delta-type opioid receptor (Rattus norvegicus, UniProt P33533); assay: Agonist activity at recombinant rat DOP stably expressed in CHO-K1 cell membrane assessed as [35S]GTPgammaS binding; assay type: functional, cell membranes
Delta-type opioid receptor (Rattus norvegicus, UniProt P33533), sequence (P33533 whole entry): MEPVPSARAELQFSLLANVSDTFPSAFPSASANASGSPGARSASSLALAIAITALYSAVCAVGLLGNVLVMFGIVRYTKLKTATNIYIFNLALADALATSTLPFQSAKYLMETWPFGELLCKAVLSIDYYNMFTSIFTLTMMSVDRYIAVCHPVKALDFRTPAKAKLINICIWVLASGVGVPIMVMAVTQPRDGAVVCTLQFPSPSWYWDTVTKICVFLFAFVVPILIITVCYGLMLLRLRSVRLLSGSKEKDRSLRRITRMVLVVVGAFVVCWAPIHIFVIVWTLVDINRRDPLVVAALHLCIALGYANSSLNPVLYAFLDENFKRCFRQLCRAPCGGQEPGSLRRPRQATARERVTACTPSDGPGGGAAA

Mus musculus [10] = assay: Antinociceptive activity in sc dosed mouse; assay type: functional
Mu-type opioid receptor [11] = biological target: T3, Mu-type opioid receptor (Cavia porcellus, UniProt P97266); assay: Displacement of [3H]DAMGO from guinea pig brain membrane MOP incubated for 1 hr by scintillation counter analysis; assay type: cell membranes
T3 sequence (P97266 whole entry): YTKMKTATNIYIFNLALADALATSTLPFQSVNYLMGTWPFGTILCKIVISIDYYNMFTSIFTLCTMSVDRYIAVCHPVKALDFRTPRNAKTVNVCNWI

[12] = biological target: Kappa-type opioid receptor (Cavia porcellus, UniProt P41144); assay: Displacement of [3H]U69593 from guinea pig brain membrane KOP incubated for 1 hr by scintillation counter analysis; assay type: cell membranes
Kappa-type opioid receptor (Cavia porcellus, UniProt P41144), sequence (P41144 whole entry): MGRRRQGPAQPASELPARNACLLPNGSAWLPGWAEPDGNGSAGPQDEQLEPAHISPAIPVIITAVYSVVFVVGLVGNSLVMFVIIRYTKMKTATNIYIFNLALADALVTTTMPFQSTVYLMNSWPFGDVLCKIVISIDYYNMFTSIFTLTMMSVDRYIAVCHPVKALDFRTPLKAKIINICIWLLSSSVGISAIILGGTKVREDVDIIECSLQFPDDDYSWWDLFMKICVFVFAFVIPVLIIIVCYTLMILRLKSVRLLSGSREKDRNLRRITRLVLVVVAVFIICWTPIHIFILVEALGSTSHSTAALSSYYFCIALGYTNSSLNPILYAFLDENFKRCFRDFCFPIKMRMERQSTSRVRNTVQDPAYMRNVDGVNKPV

Mu-type opioid receptor [13] = biological target: T4, Mu-type opioid receptor (Rattus norvegicus, UniProt P33535); assay: Agonist activity at recombinant rat MOP stably expressed in CHO-K1 cell membrane assessed as [35S]GTPgammaS binding; assay type: functional, cell membranes
T4 sequence (P33535 whole entry): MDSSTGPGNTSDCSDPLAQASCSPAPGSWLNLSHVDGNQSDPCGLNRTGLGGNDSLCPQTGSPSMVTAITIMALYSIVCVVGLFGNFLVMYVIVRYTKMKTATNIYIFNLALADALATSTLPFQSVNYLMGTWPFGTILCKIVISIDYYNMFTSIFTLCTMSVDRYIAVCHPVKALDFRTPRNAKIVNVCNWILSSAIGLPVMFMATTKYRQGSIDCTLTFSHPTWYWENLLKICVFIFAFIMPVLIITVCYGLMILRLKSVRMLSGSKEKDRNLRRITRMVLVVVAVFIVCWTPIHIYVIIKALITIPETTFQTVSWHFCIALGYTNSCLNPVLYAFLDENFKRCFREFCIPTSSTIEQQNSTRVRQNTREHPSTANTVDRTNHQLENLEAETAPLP

Mus musculus [14] = assay: Antinociceptive activity in po dosed mouse by tail flick assay; assay type: functional
[15] = Toxicity in po dosed mouse assessed as antinociceptive activity tolerance by tail flick assay; assay type: organism-based; conditions: in vivo
Mus musculus [16] = assay: Antinociceptive activity in mouse administered IT; assay type: functional
Mu-type opioid receptor [17] = biological target: T2, Mu-type opioid receptor; assay: Displacement of [3H]DAMGO from mouse brain cerebellum MOP incubated for 2 hrs by liquid scintillation counter analysis; assay type: tissue-based
Mus musculus [18] = assay: Antinociceptive activity in mouse administered po; assay type: functional
Mus musculus [19] = assay: Antinociceptive activity in mouse administered sc; assay type: functional
[20] = biological target: T1, Delta-type opioid receptor; assay: Displacement of [3H]DPDPE from mouse brain cerebellum DOP incubated for 2 hrs by liquid scintillation counter analysis; assay type: tissue-based
Mu-type opioid receptor [21] = biological target: T5, Mu-type opioid receptor (Homo sapiens, UniProt P35372); assay: Antagonist activity at human MOP stably expressed in CHO cell membrane assessed as [35S]GTPgammaS binding; assay type: functional, cell membranes
T5 sequence (P35372 whole entry): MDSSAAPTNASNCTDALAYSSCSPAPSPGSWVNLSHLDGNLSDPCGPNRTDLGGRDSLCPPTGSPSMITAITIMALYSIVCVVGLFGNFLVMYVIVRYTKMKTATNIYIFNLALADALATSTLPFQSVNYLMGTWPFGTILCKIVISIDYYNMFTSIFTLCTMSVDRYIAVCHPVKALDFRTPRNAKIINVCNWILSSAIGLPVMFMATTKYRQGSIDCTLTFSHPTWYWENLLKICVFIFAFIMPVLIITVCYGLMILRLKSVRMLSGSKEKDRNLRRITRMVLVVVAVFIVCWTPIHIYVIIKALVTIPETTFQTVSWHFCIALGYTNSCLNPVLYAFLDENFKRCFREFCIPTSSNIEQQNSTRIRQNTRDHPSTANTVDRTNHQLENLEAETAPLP

Mus musculus [22] = assay: Antinociceptive activity in icv dosed C57BL/6J mouse assessed as tail withdrawal latency from warm water; assay type: functional
Mu-type opioid receptor [23] = biological target: T4, Mu-type opioid receptor; assay: Displacement of [3H]DAMGO from rat MOP stably expressed in CHO cell membrane; assay type: cell membranes
[24] = biological target: Kappa-type opioid receptor (Rattus norvegicus, UniProt P34975); assay: Displacement of [3H]diprenorphine from rat KOP stably expressed in CHO cell membrane; assay type: cell membranes
Kappa-type opioid receptor (Rattus norvegicus, UniProt P34975), sequence (P34975 whole entry): as the sequence (P33534 whole entry) above, with D11E, S17A, S51P, A308V counted along it

[25] = biological target: T6, Kappa-type opioid receptor (Homo sapiens, UniProt P41145); assay: Binding affinity to human KOP stably expressed in CHO cell membrane assessed as [35S]GTPgammaS binding; assay type: cell membranes; conditions: filed as antagonist
T6 sequence (P41145 whole entry): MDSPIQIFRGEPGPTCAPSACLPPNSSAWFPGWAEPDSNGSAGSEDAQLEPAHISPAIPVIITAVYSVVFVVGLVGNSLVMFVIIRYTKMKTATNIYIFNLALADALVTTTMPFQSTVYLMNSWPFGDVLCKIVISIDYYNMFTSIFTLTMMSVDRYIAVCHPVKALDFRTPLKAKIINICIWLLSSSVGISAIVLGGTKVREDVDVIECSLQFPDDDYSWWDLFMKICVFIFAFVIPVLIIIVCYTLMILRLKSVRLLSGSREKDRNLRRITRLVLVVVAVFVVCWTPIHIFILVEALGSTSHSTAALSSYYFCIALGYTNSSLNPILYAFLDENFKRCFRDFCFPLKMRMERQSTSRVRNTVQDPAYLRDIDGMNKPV

Mu-type opioid receptor [26] = biological target: T3, Mu-type opioid receptor; assay: Antagonist activity at guinea pig ileum MOP; assay type: functional, tissue-based
Mus musculus [27] = assay: Antinociceptive activity in mouse administered icv; assay type: functional
[28] = Stability in mouse serum assessed as half life; assay type: ADME, cell-free
[29] = biological target: T7, Delta-type opioid receptor (Homo sapiens, UniProt P41143); assay: Displacement of [3H]DPDPE from DOP (unknown origin) stably expressed in HEK293 cells by liquid scintillation counter analysis; assay type: cell-based
T7 sequence (P41143 whole entry): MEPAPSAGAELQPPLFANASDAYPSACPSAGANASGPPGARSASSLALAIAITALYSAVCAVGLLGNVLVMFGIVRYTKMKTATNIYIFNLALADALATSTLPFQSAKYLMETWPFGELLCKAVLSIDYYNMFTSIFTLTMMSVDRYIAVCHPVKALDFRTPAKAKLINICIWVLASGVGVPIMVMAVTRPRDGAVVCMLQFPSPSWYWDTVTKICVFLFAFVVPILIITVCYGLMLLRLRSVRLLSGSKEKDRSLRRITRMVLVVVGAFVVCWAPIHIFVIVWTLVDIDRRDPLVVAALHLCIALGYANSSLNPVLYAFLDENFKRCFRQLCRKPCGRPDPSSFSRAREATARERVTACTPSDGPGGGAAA

Mus musculus [30] = assay: Antinociceptive activity in Kunming mouse assessed as tail flick response in warm water administered iv; assay type: functional
Mu-type opioid receptor [31] = biological target: T5, Mu-type opioid receptor; assay: Displacement of [3H]DAMGO from MOP (unknown origin) stably expressed in HEK293 cells by liquid scintillation counter analysis; assay type: cell-based
Mu-type opioid receptor [32] = biological target: T5, Mu-type opioid receptor; assay: Agonist activity at MOP (unknown origin) stably expressed in HEK293 cells assessed as forskolin stimulated cAMP accumulation incubated for 30 mins by radioactivity based scintillation counter analysis; assay type: functional, cell-based
[33] = Stability in mouse brain homogenate assessed as half life; assay type: ADME, tissue-based
Mus musculus [34] = assay: Antinociceptive activity in Kunming mouse assessed tail flick response in warm water administered icv; assay type: functional
Mu-type opioid receptor [35] = biological target: T5, Mu-type opioid receptor; assay: Agonist activity at MOP (unknown origin) stably expressed in HEK293 cells assessed as forskolin stimulated cAMP accumulation incubated for 30 mins by radioactivity based scintillation counter analysis relative to control; assay type: functional, cell-based; conditions: filed as agonist
[36] = biological target: T1, Delta-type opioid receptor; assay: Displacement of [3H]DPDPE from mouse DOP stably expressed in CHO cell membrane; assay type: cell membranes
[37] = biological target: T6, Kappa-type opioid receptor; assay: Antagonist activity at human KOP stably expressed in CHO cell membrane assessed as [35S]GTPgammaS binding; assay type: functional, cell membranes
[38] = biological target: T7, Delta-type opioid receptor; assay: Displacement of [3H]DPDPE from human DOP expressed in CHO-K1 cell membrane incubated for 60 mins by Microscint-counting analysis; assay type: cell membranes
Mu-type opioid receptor [39] = biological target: T5, Mu-type opioid receptor; assay: Displacement of [3H]DAMGO from human MOP expressed in CHO-K1 cell membrane incubated for 60 mins by Microscint-counting analysis; assay type: cell membranes
[40] = Stability in rat plasma assessed as half life; assay type: ADME, cell-free
[41] = biological target: T6, Kappa-type opioid receptor; assay: Displacement of [3H]U69593 from human KOP expressed in CHO-K1 cell membrane incubated for 60 mins by Microscint-counting analysis; assay type: cell membranes
Rattus norvegicus [42] = assay: Antinociceptive activity in Sprague-Dawley rat assessed as tail flick response in warm water administered iv; assay type: functional
Mu-type opioid receptor [43] = biological target: T5, Mu-type opioid receptor; assay: Agonist activity at human MOP expressed in CHO-K1 cell membrane assessed as [35S]GTPgammaS binding relative to control; assay type: functional, cell membranes; conditions: filed as agonist
Rattus norvegicus [44] = assay: Antinociceptive activity in Sprague-Dawley rat assessed as tail flick response in warm water administered icv; assay type: functional
Mu-type opioid receptor [45] = biological target: T5, Mu-type opioid receptor; assay: Agonist activity at human MOP expressed in CHO-K1 cell membrane assessed as [35S]GTPgammaS binding; assay type: functional, cell membranes
[46] = Stability in human plasma assessed as half life; assay type: ADME, cell-free

T1 sequence (P32300 whole entry): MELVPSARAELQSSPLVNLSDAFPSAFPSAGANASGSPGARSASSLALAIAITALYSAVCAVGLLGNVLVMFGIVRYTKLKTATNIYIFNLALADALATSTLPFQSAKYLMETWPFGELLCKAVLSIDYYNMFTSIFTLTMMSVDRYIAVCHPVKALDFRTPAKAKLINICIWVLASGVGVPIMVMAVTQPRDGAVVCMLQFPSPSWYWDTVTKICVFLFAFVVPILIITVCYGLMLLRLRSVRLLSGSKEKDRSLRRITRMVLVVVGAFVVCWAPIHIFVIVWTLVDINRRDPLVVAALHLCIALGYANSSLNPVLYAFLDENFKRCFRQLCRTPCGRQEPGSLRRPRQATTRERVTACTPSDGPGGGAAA

Question: For CN(CCC(=O)O)C(=O)[C@H](Cc1ccccc1)NC(=O)[C@@H](CCCNC(=N)N)NC(=O)[C@H](Cc1ccc(O)cc1)NC(=N)N, which Ki [1] is on record?
Answer: > 1000 nM

Question: What about the ED50 (Mus musculus [2]) of the same compound?
Answer: 5.8 mg/kg

Question: And the Ki [3]?
Answer: > 1000 nM

Question: And the ED50 (Mus musculus [4])?
Answer: 0.09 mg/kg

Question: And the ED50 (Mus musculus [5])?
Answer: 0.07 mg/kg

Question: And the Ki (Mu-type opioid receptor [6])?
Answer: 12.9 nM

Question: Which results are given for CC[C@@H]1CN2CC[C@]3(O)c4c(cccc4OC)N[C@@H]3[C@@H]2C[C@@H]1/C(=C\OC)C(=O)OC?
Answer: Ki [7]: 16 nM; ED50 [8]: 0.35 mg/kg; EC50 [9]: 1490 nM; ED50 (Mus musculus [10]): 0.3 mg/kg; Ki (Mu-type opioid receptor [11]): 6.4 nM; Ki [12]: 55 nM; EC50 (Mu-type opioid receptor [13]): 250 nM; ED50 (Mus musculus [14]): 1.3 mg/kg; ED50 [15]: 2.2 mg/kg

Question: For N=C(N)NCCC[C@@H](NC(=O)[C@H](Cc1ccc(O)cc1)NC(=N)N)C(=O)N[C@@H](Cc1ccccc1)C(=O)NCCC(=O)O, which ED50 (Mus musculus [16]) is on record?
Answer: 0.34 pmol

Question: And the Ki [1]?
Answer: > 1000 nM

Question: What about the Ki (Mu-type opioid receptor [17]) of the same compound?
Answer: 0.67 nM

Question: What about the Ki [3] of the same compound?
Answer: > 1000 nM

Question: What about the ED50 (Mus musculus [18]) of the same compound?
Answer: 19 mg/kg

Question: What about the ED50 (Mus musculus [19]) of the same compound?
Answer: 0.24 mg/kg

Question: What about the Ki [20] of the same compound?
Answer: 160 nM

Question: And the Ki (Mu-type opioid receptor [6])?
Answer: 12.9 nM

Question: Which results are given for C[C@@H]1C(=O)N[C@@H](Cc2ccccc2)C(=O)N[C@H](Cc2c[nH]c3ccccc23)C(=O)N[C@@H](Cc2ccccc2)C(=O)N1C?
Answer: IC50 (Mu-type opioid receptor [21]): 321 nM; ED50 (Mus musculus [22]): 4.19 nmol; Ki (Mu-type opioid receptor [23]): 257 nM; Ki [24]: 76.9 nM; Kb [25]: 103 nM

Question: Which ED50 (Mus musculus [2]) does the source give for N=C(N)NCCC[C@@H](NC(=O)[C@@H](N)Cc1ccc(O)cc1)C(=O)N[C@@H](Cc1ccccc1)C(N)=O here?
Answer: 103 µmol/kg

Question: And the IC50 (Mu-type opioid receptor [26])?
Answer: 240 nM

Question: And the ED50 (Mus musculus [4])?
Answer: 1 µmol/kg

Question: What about the ED50 (Mus musculus [27]) of the same compound?
Answer: 210 pmol

Question: Which half-life [28] does the source give for C=C(C(N)=O)[C@@H](NC(=O)[C@H](Cc1c[nH]c2ccccc12)NC(=O)[C@@H](C)N(C)C(=O)[C@@H](N)Cc1c(C)cc(O)cc1C)c1ccco1 here?
Answer: ≥ 5 h

Question: What about the Ki [29] of the same compound?
Answer: 33.3 nM

Question: And the ED50 (Mus musculus [30])?
Answer: 0.382 mg/kg

Question: And the Ki (Mu-type opioid receptor [31])?
Answer: 0.011 nM

Question: What about the EC50 (Mu-type opioid receptor [32]) of the same compound?
Answer: 0.0018 nM

Question: And the half-life [33]?
Answer: ≥ 5 h

Question: And the ED50 (Mus musculus [34])?
Answer: 0.000695 µmol/kg

Question: What about the Emax (Mu-type opioid receptor [35]) of the same compound?
Answer: 98.3%

Question: Which IC50 (Mu-type opioid receptor [21]) does the source give for C[C@@H]1NC(=O)[C@H]2CCCN2C(=O)[C@H](Cc2ccccc2)NC(=O)[C@@H](Cc2c[nH]c3ccccc23)NC1=O here?
Answer: 1470 nM

Question: And the Ki [36]?
Answer: 10000 nM

Question: And the ED50 (Mus musculus [22])?
Answer: 1.04 nmol

Question: And the Ki (Mu-type opioid receptor [23])?
Answer: 299 nM

Question: And the Ki [24]?
Answer: 167 nM

Question: And the IC50 [37]?
Answer: 397 nM

Question: Which results are given for NC(=O)CNC(=O)[C@@H]1CCC(=O)NCCCC[C@@H](NC(=O)[C@@H](N)Cc2ccc(O)cc2)C(=O)N[C@@H](Cc2c[nH]c3ccccc23)C(=O)N[C@@H](Cc2ccccc2)C(=O)N1?
Answer: Ki [38]: 127 nM; Ki (Mu-type opioid receptor [39]): 0.68 nM; half-life [40]: 81 h; Ki [41]: 5120 nM; ED50 (Rattus norvegicus [42]): 1.5 mg/kg; Emax (Mu-type opioid receptor [43]): 100%; ED50 (Rattus norvegicus [44]): 0.019 nmol; EC50 (Mu-type opioid receptor [45]): 1.01 nM; half-life [46]: 150 h
